Consider one compound from article PMC11233932, “Identification of an alternative ligand‐binding pocket in peroxisome proliferator‐activated receptor gamma and its correlated selective agonist for promoting beige adipocyte differentiation” (MedComm, 2024).

In this assay the target is T1, peroxisome proliferator-activated receptor gamma (PPARγ) (Mus musculus, UniProt P37238).
T1 construct: gene Pparg; LBD, GFP fusion overexpressed in 293T cells
T1 sequence (P37238 238-505 limits assumed): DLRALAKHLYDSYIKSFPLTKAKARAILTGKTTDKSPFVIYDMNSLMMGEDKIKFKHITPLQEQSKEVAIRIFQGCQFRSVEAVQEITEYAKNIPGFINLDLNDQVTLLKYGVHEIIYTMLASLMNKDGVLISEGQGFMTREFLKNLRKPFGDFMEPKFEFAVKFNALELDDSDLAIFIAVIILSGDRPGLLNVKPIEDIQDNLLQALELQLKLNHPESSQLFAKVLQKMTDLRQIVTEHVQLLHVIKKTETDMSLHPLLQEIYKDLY
Put plainly: microscale thermophoresis with GFP-PPARγ LBD in cell lysate; supported by luciferase reporter (partial agonist). In kind it is binding. Background: Microscale thermophoresis detects binding through changes in fluorescence in a small temperature gradient.

Usually Kd stands for the equilibrium constant for the complex coming apart. Low values mean tighter binding, high ones weaker binding. Compound `C[C@H]1O[C@@H](O[C@H]2CC[C@@]3(C)[C@@H](CC[C@]4(C)[C@@H]3C=C[C@]35OC[C@@]6(CCC(C)(C)C[C@H]63)[C@@H](O)C[C@]54C)[C@]2(C)CO)[C@H](O)[C@@H](O[C@@H]2O[C@H](CO)[C@@H](O)[C@H](O)[C@H]2O)[C@H]1O` [NJT-2, saikosaponin A] displayed a Kd of 5.07 µM.
